Results reported in the supplement of paper PMC11061612.

What was measured:
Carboplatin = compound: C1CC(C1)(C(=O)[O-])C(=O)[O-].N.N.[Pt+2] [Carboplatin]; conditions: max 10 µM
Outline: (§1)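 Following 24 hours at 37°C and 5% CO2, cancer cell lines in 1536-well plates with 7.5 μl DMEM/F12 or RPMI and 10% FBS were dosed for 72 hours, final DMSO typically being 0.2%. CellTiter-Glo 2.0 luminescence, scaled between blank-well and DMSO-well means, gave the viability readout. Dose responses were fitted to a two-parameter logistic curve with a non-linear mixed effects model, and the single-agent IC50 was derived from this fit.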

AZD5363 = compound: C1CN(CCC1(C(=O)N[C@@H](CCO)C2=CC=C(C=C2)Cl)N)C3=NC=NC4=C3C=CN4 [AZD5363]; conditions: max 10 µM
Outline: as §1

AZD1775 = compound: C=CCn1c(=O)c2cnc(Nc3ccc(N4CCN(C)CC4)cc3)nc2n1-c1cccc(C(C)(C)O)n1 [AZD1775]; conditions: max 3 µM
Outline: as §1

Trametinib = compound: CC(=O)Nc1cccc(-n2c(=O)n(C3CC3)c(=O)c3c(Nc4ccc(I)cc4F)n(C)c(=O)c(C)c32)c1 [Trametinib]; conditions: max 1 µM
Outline: as §1

Paclitaxel = compound: CC(=O)O[C@H]1C(=O)[C@@]2(C)[C@H]([C@H](OC(=O)c3ccccc3)[C@]3(O)C[C@H](OC(=O)[C@H](O)[C@@H](NC(=O)c4ccccc4)c4ccccc4)C(C)=C1C3(C)C)[C@]1(OC(C)=O)CO[C@@H]1C[C@@H]2O [Paclitaxel]; conditions: max 3 µM
Outline: as §1

Palbociclib = compound: CC(=O)c1c(C)c2cnc(Nc3ccc(N4CCNCC4)cn3)nc2n(C2CCCC2)c1=O [Palbociclib]; conditions: max 10 µM
Outline: as §1

AZD1390 = compound: CC(C)n1c(=O)n(C)c2cnc3cc(F)c(-c4ccc(OCCCN5CCCCC5)nc4)cc3c21 [AZD1390]; conditions: max 0.3 µM
Outline: as §1

Venetoclax = compound: CC1(C)CCC(CN2CCN(c3ccc(C(=O)NS(=O)(=O)c4ccc(NCC5CCOCC5)c([N+](=O)[O-])c4)c(Oc4cnc5[nH]ccc5c4)c3)CC2)=C(c2ccc(Cl)cc2)C1 [Venetoclax]; conditions: max 1 µM
Outline: as §1

Dasatinib = compound: CC1=C(C(=CC=C1)Cl)NC(=O)C2=CN=C(S2)NC3=CC(=NC(=N3)C)N4CCN(CC4)CCO [Dasatinib]; conditions: max 2 µM
Outline: as §1

SG3199 = compound: CC1=CN2[C@@H](C1)C=NC3=CC(=C(C=C3C2=O)OC)OCCCCCOC4=C(C=C5C(=C4)N=C[C@@H]6CC(=CN6C5=O)C)OC [SG3199]; conditions: max 0.001 µM
Outline: as §1

AZD2811 = compound: CCN(CCO)CCCOc1ccc2c(Nc3cc(CC(=O)Nc4cccc(F)c4)[nH]n3)ncnc2c1 [AZD2811]; conditions: max 1 µM
Outline: as §1

SN-38 = compound: CCc1c2c(nc3ccc(O)cc13)-c1cc3c(c(=O)n1C2)COC(=O)[C@]3(O)CC [SN-38]; conditions: max 0.3 µM
Outline: as §1

AZD0156 = compound: CN(C)CCCOc1ccc(-c2ccc3ncc4c(c3c2)n(C2CCOCC2)c(=O)n4C)cn1 [AZD0156]; conditions: max 3 µM
Outline: as §1

AZD4320 = compound: CN(CC[C@H](CSC1=CC=CC=C1)NC2=C(C=C(C=C2)S(=O)(=O)NC(=O)C3=CC=C(C=C3)N4CCC(CC4)[C@H](C5=CC=CC=C5C6=CC=C(C=C6)Cl)O)S(=O)(=O)C(F)(F)F)CCO [AZD4320]; conditions: max 1 µM
Outline: as §1

Alisertib = compound: COc1cc(Nc2ncc3c(n2)-c2ccc(Cl)cc2C(c2c(F)cccc2OC)=NC3)ccc1C(=O)O [Alisertib]; conditions: max 10 µM
Outline: as §1

Etoposide = compound: COc1cc([C@@H]2c3cc4c(cc3[C@@H](O[C@@H]3O[C@@H]5CO[C@@H](C)O[C@H]5[C@H](O)[C@H]3O)[C@H]3COC(=O)[C@H]23)OCO4)cc(OC)c1O [Etoposide]; conditions: max 10 µM
Outline: as §1

Gefitinib = compound: COc1cc2ncnc(Nc3ccc(F)c(Cl)c3)c2cc1OCCCN1CCOCC1 [Gefitinib]; conditions: max 10 µM
Outline: as §1

Prexasertib = compound: COc1cccc(OCCCN)c1-c1cc(Nc2cnc(C#N)cn2)n[nH]1 [Prexasertib]; conditions: max 1 µM
Outline: as §1

Doxorubicin = compound: COc1cccc2c1C(=O)c1c(O)c3c(c(O)c1C2=O)C[C@@](O)(C(=O)CO)C[C@@H]3O[C@H]1C[C@H](N)[C@H](O)[C@H](C)O1 [Doxorubicin]; conditions: max 1 µM
Outline: as §1

AZD5153 = compound: COc1nnc2ccc(N3CCC(c4ccc(OCCN5CCN(C)C(=O)[C@H]5C)cc4)CC3)nn12 [AZD5153]; conditions: max 1 µM
Outline: as §1

Lapatinib = compound: CS(=O)(=O)CCNCc1ccc(-c2ccc3ncnc(Nc4ccc(OCc5cccc(F)c5)c(Cl)c4)c3c2)o1 [Lapatinib]; conditions: max 10 µM
Outline: as §1

AZD8186 = compound: C[C@@H](Nc1cc(F)cc(F)c1)c1cc(C(=O)N(C)C)cc2c(=O)cc(N3CCOCC3)oc12 [AZD8186]; conditions: max 10 µM
Outline: as §1

Crizotinib = compound: C[C@@H](Oc1cc(-c2cnn(C3CCNCC3)c2)cnc1N)c1c(Cl)ccc(F)c1Cl [Crizotinib]; conditions: max 10 µM
Outline: as §1

Savolitinib = compound: C[C@@H](c1ccc2nccn2c1)n1nnc2ncc(-c3cnn(C)c3)nc21 [Savolitinib]; conditions: max 1 µM
Outline: as §1

AZD6738 = compound: C[C@@H]1COCCN1C2=NC(=NC(=C2)C3(CC3)[S@](=N)(=O)C)C4=C5C=CNC5=NC=C4 [AZD6738]; conditions: max 10 µM
Outline: as §1

AZD5991 = compound: Cc1c2c(nn1C)CSCc1cc(n(C)n1)CSc1cc(c3ccccc3c1)OCCCc1c(C(=O)O)n(C)c3c-2c(Cl)ccc13 [AZD5991]; conditions: max 1 µM
Outline: as §1

AZD7648 = compound: Cc1cc2ncnn2cc1Nc1ncc2c(n1)n(C1CCOCC1)c(=O)n2C [AZD7648]; conditions: max 10 µM
Outline: as §1

Taselisib = compound: Cc1nc(-c2cn3c(n2)-c2ccc(-c4cnn(C(C)(C)C(N)=O)c4)cc2OCC3)n(C(C)C)n1 [Taselisib]; conditions: max 10 µM
Outline: as §1

Selumetinib = compound: Cn1cnc2c(F)c(Nc3ccc(Br)cc3Cl)c(C(=O)NOCCO)cc21 [Selumetinib]; conditions: max 10 µM
Outline: as §1

SRA737 = compound: N#Cc1cnc(Nc2cc(NC[C@H]3CNCCO3)c(C(F)(F)F)cn2)cn1 [SRA737]; conditions: max 10 µM
Outline: as §1

MK-2206 = compound: NC1(c2ccc(-c3nc4ccn5c(=O)[nH]nc5c4cc3-c3ccccc3)cc2)CCC1 [MK-2206]; conditions: max 10 µM
Outline: as §1

Gemcitabine = compound: Nc1ccn([C@@H]2O[C@H](CO)[C@@H](O)C2(F)F)c(=O)n1 [Gemcitabine]; conditions: max 0.3 µM
Outline: as §1

[1] = compound: O=C(Nc1ccc2[nH]nc(-c3ccncc3)c2c1)[C@@H]1CCN(CC(=O)N2CCN(c3ccc(-c4ncccn4)cc3)CC2)C1; conditions: max 5 µM
Outline: as §1

Olaparib = compound: O=C(c1cc(Cc2n[nH]c(=O)c3ccccc23)ccc1F)N1CCN(C(=O)C2CC2)CC1 [Olaparib]; conditions: max 10 µM
Outline: as §1

5-Fluorouracil = compound: O=c1[nH]cc(F)c(=O)[nH]1 [5-Fluorouracil]; conditions: max 20 µM
Outline: as §1

NCI-H2795 (Mesothelioma)
IC50, cell viability 72 h (Carboplatin): > 10000 nM
IC50, cell viability 72 h (AZD5363): > 10000 nM
IC50, cell viability 72 h (AZD1775): > 3000 nM
IC50, cell viability 72 h (Trametinib): 38.4 nM
IC50, cell viability 72 h (Paclitaxel): 85.3 nM
IC50, cell viability 72 h (Palbociclib): > 10000 nM
IC50, cell viability 72 h (AZD1390): > 300 nM
IC50, cell viability 72 h (Venetoclax): > 1000 nM
IC50, cell viability 72 h (Dasatinib): 578 nM
IC50, cell viability 72 h (SG3199): > 1 nM
IC50, cell viability 72 h (AZD2811): > 1000 nM
IC50, cell viability 72 h (SN-38): 16.9 nM
IC50, cell viability 72 h (AZD0156): > 3000 nM
IC50, cell viability 72 h (AZD4320): > 1000 nM
IC50, cell viability 72 h (Alisertib): 1300 nM
IC50, cell viability 72 h (Etoposide): 3820 nM
IC50, cell viability 72 h (Gefitinib): > 10000 nM
IC50, cell viability 72 h (Prexasertib): 146 nM
IC50, cell viability 72 h (Doxorubicin): 715 nM
IC50, cell viability 72 h (AZD5153): 840 nM
IC50, cell viability 72 h (Lapatinib): > 10000 nM
IC50, cell viability 72 h (AZD8186): > 10000 nM
IC50, cell viability 72 h (Crizotinib): 7780 nM
IC50, cell viability 72 h (Savolitinib): > 1000 nM
IC50, cell viability 72 h (AZD6738): 9010 nM
IC50, cell viability 72 h (AZD5991): 974 nM
IC50, cell viability 72 h (AZD7648): > 10000 nM
IC50, cell viability 72 h (Taselisib): 4730 nM
IC50, cell viability 72 h (Selumetinib): 3140 nM
IC50, cell viability 72 h (SRA737): > 10000 nM
IC50, cell viability 72 h (MK-2206): > 10000 nM
IC50, cell viability 72 h (Gemcitabine): 25.8 nM
IC50, cell viability 72 h [1]: 658 nM
IC50, cell viability 72 h (Olaparib): > 10000 nM
IC50, cell viability 72 h (5-Fluorouracil): 19600 nM

HARA (Squamous Cell Lung Carcinoma)
IC50, cell viability 72 h (Carboplatin): > 10000 nM
IC50, cell viability 72 h (AZD5363): 9160 nM
IC50, cell viability 72 h (AZD1775): 207 nM
IC50, cell viability 72 h (Trametinib): 858 nM
IC50, cell viability 72 h (Paclitaxel): 3.63 nM
IC50, cell viability 72 h (Palbociclib): 7420 nM
IC50, cell viability 72 h (AZD1390): > 300 nM
IC50, cell viability 72 h (Venetoclax): > 1000 nM
IC50, cell viability 72 h (Dasatinib): > 2000 nM
IC50, cell viability 72 h (SG3199): > 1 nM
IC50, cell viability 72 h (AZD2811): > 1000 nM
IC50, cell viability 72 h (SN-38): 44.5 nM
IC50, cell viability 72 h (AZD0156): > 3000 nM
IC50, cell viability 72 h (AZD4320): > 1000 nM
IC50, cell viability 72 h (Alisertib): 3820 nM
IC50, cell viability 72 h (Etoposide): 9590 nM
IC50, cell viability 72 h (Gefitinib): > 10000 nM
IC50, cell viability 72 h (Prexasertib): 13.9 nM
IC50, cell viability 72 h (Doxorubicin): 577 nM
IC50, cell viability 72 h (AZD5153): 223 nM
IC50, cell viability 72 h (Lapatinib): 7690 nM
IC50, cell viability 72 h (AZD8186): > 10000 nM
IC50, cell viability 72 h (Crizotinib): > 10000 nM
IC50, cell viability 72 h (Savolitinib): > 1000 nM
IC50, cell viability 72 h (AZD6738): 1730 nM
IC50, cell viability 72 h (AZD5991): > 1000 nM
IC50, cell viability 72 h (AZD7648): > 10000 nM
IC50, cell viability 72 h (Taselisib): 2150 nM
IC50, cell viability 72 h (Selumetinib): > 10000 nM
IC50, cell viability 72 h (SRA737): 1000 nM
IC50, cell viability 72 h (MK-2206): > 10000 nM
IC50, cell viability 72 h (Gemcitabine): 56 nM
IC50, cell viability 72 h [1]: 3840 nM
IC50, cell viability 72 h (Olaparib): > 10000 nM
IC50, cell viability 72 h (5-Fluorouracil): 18300 nM
